Like-named read-outs stand apart in the source and are kept apart here.
How the values were obtained:
[1] = system: MDA-MB-231 human breast cancer cells admixed with human mesenchymal stem (MSC) cells; assay: Efficacy of AMD3465 in MDA-MB-231+MSC breast cancer model (Example 1); type: in vivo, SCID mice; details: vs PBS control, FIG. 1
Protocol: The MSC cells provide stromal support to the MDA-MB-231 cells and enhance tumor growth and metastasis via SDF-1α/CXCL12 and RANTES pathways.
Group 2 was given intraperitoneal injections of anti-human SDF-1α/CXCL12 monoclonal antibody three times a week (Monday, Wednesday and Friday) for six weeks at 100 μg per animal.

[2] = system: MDA-MB-231 cells admixed with MSC cells; details: presence of MSC cells, FIG. 2A
Protocol: (§1) Six groups of 6- to 8-week-old SCID mice (6 animals each) were injected subcutaneously with 1×10^6 MDA-MB-231 cells. Groups 4-6 were further injected with 1×10^6 MSC cells admixed with the MDA-MB-231 cells.
(§2) The size of the tumors was measured approximately every five days, beginning on day 15 post-injection. Animals were euthanized when the tumor volume reached approximately 1000 mm^3. The time course of the average tumor volume is plotted for each experimental group in FIGS. 2A and 2B.

MDA-MB-231 cells = details: AMD3465 5 or 10 mg/kg i.p. MWF from 7 days post-injection; absence of MSC cells; FIG. 2B
Protocol: as §1, §2

[3] = system: established MDA-MB-231 tumors; details: for rate of tumor growth: FIG. 3A; for mean survival (Kaplan-Meier): FIG. 3B
Protocol: Four groups of 6- to 8-week-old SCID mice (8 animals each) were injected subcutaneously with 1×10^6 MDA-MB-231 cells. At the start of dosing (about 21 days post-injection), the tumor volume was approximately 100 mm^3.
The size of the tumors was measured approximately every five days, beginning on day 21 post-injection. Animals were euthanized when the tumor volume reached approximately 1000 mm^3. The time course of the average tumor volume is plotted for each experimental group in FIG. 3A.

breast cancer = details: mouse models of breast cancer; literature; cited from earlier work
established 4T1 tumors = system: established 4T1 tumors
Excerpt: The 4T1 cell line (available from the […], Manassas, Va.) was derived from a spontaneously arising BALB/c mammary tumor and is commonly used as a syngeneic mouse model of metastatic breast cancer. When introduced orthotopically, the 4T1 line grows rapidly at the primary site and forms metastases in lungs, liver, bone and brain over a period of 3-6 weeks. When introduced intravenously or arterially, metastases are apparent in the same organs after 1-2 weeks. The rapid and efficient metastasis to organs affected in human breast cancer makes the 4T1 model an excellent mouse model for the study of metastatic progression of breast cancer in humans.
Three groups of 6- to 8-week-old SCID mice (6 animals each) were injected subcutaneously with 2×10^5 4T1 cells. At the start of dosing (about 14 days post-injection), the tumor volume was approximately 100 mm^3.
The size of the tumors was measured approximately every four days, beginning on day 10 post-injection. Animals were euthanized when the tumor volume reached approximately 1000 mm^3. […] The time course of the average tumor volume is plotted for each experimental group in FIG. 4A.

MDA-MB-231 tumors [4] = details: for potentiation of the effect of doxorubicin on tumor growth: three weeks from day 28, vs doxorubicin alone, FIG. 5
Protocol: Four groups of 6- to 8-week-old SCID mice (6 animals each) were injected subcutaneously with 1×10^6 MDA-MB-231 cells. At the start of dosing (about 28 days post-injection), the tumor volume was approximately 100 mm^3. Beginning approximately 28 days after the injection, Groups 2-4 were administered intraperitoneal injections of doxorubicin once a week (Monday) for three weeks at 2 mg/kg body weight.
The size of the tumors was measured approximately every six days, beginning on day 21 post-injection. Animals were euthanized when the tumor volume reached approximately 1000 mm^3. The time course of the average tumor volume is plotted for each experimental group in FIG. 5.

MDA-MB-231 tumors [5] = system: MDA-MB-231 tumors
Protocol: Three groups of 6- to 8-week-old SCID mice (6 animals each) were injected subcutaneously with 2×10^6 MDA-MB-231 cells. At the start of dosing (about 14 days post-injection), the tumor volume was approximately 100 mm^3. Beginning approximately 14 days after the injection, Groups 2 and 3 were administered intraperitoneal injections of doxorubicin once a week (Monday) for the duration of the study at 1 mg/kg body weight.
The size of the tumors was measured approximately every three days, beginning on day 21 post-injection. Animals were euthanized when the tumor volume reached approximately 1000 mm^3. The time course of the average tumor volume is plotted for each experimental group in FIG. 6A.

[6] = system: SDF-1α/CXCL12-mediated transactivation of HER2/neu; details: MDA-MB-361 breast cancer cells, in vitro; Cabioglu et al. 2005; cited from earlier work
murine 4T1 cells = details: Smith et al. 2004, cited from earlier work
[7] = disclosed in PCT Pub. No. WO 00/045814; cited from earlier work
[8] = AMD3100 1.25 mg/kg s.c. MWF for two weeks, FIG. 4A
[9] = AMD3100 […] + doxorubicin 2 mg/kg
[10] = AMD3100 […] + doxorubicin 1 mg/kg

Molecule: c1ccc(CNCc2ccc(CN3CCCNCCNCCCNCC3)cc2)nc1 [AMD3465]
- rate of tumor growth ([1]; AMD3465 5 mg/kg i.p. MWF for six weeks from 48 hours post-injection): significantly (p=0.07) decreased the rate of tumor growth
- rate of tumor growth ([1]; AMD3465 10 mg/kg i.p. MWF for six weeks from 48 hours post-injection): not at 10 mg/kg
- rate of tumor growth ([2]; AMD3465 5 mg/kg i.p. MWF from 7 days post-injection): significantly (p=0.024) decreased the rate of tumor growth
- rate of tumor growth ([2]; AMD3465 10 mg/kg i.p. MWF from 7 days post-injection): not at 10 mg/kg
- rate of tumor growth (MDA-MB-231 cells): no statistically significant effect
- rate of tumor growth ([3]; AMD3465 5 mg/kg i.p. MWF from about 21 days post-injection): not at 5 or 10 mg/kg
- mean survival (Kaplan-Meier) ([3]; AMD3465 5 mg/kg): not at 5 or 10 mg/kg
- rate of tumor growth ([3]; AMD3465 10 mg/kg i.p. MWF from about 21 days post-injection): not at 5 or 10 mg/kg
- mean survival (Kaplan-Meier) ([3]; AMD3465 10 mg/kg): not at 5 or 10 mg/kg

Molecule: TN14003
- metastasis (breast cancer): reduce metastasis
- primary tumor growth (breast cancer): reduce primary tumor growth

Molecule: c1cc(CN2CCCNCCNCCCNCC2)ccc1CN1CCCNCCNCCCNCC1 [AMD3100]
- leveling off of tumor growth (established 4T1 tumors; [8]): largely leveled off by day 26 post-injection
- onset of tumor growth (established 4T1 tumors; [8]): delayed by approximately one week
- rate of tumor growth (established 4T1 tumors; [8]): significantly decreased the rate of tumor growth
- mean survival (Kaplan-Meier) (established 4T1 tumors; AMD3100 1.25 mg/kg, FIG. 4B): increased the mean survival
- potentiation of the effect of doxorubicin on tumor growth (MDA-MB-231 tumors [4]; AMD3100 1.25 mg/kg s.c. MWF + doxorubicin 2 mg/kg i.p. weekly): not at 1.25 mg/kg
- leveling off of tumor growth (MDA-MB-231 tumors [4]; [9]): leveled off by day 92 post-injection
- onset of tumor growth (MDA-MB-231 tumors [4]; [9]): delayed by several weeks
- potentiation of the effect of doxorubicin on tumor growth (MDA-MB-231 tumors [4]; AMD3100 […] s.c. MWF + doxorubicin 2 mg/kg i.p. weekly): potentiated the effect of 2 mg/kg doxorubicin on the tumor growth
- leveling off of tumor growth (MDA-MB-231 tumors [5]; [10]): leveled off by day 50 post-injection
- onset of tumor growth (MDA-MB-231 tumors [5]; [10]): delayed by about two weeks
- rate of tumor growth compared to doxorubicin alone (MDA-MB-231 tumors [5]; [10]): significantly (p=0.04) decreased
- mean survival (Kaplan-Meier) compared to doxorubicin alone (MDA-MB-231 tumors [5]; AMD3100 […] + doxorubicin 1 mg/kg, FIG. 6B): significantly (p=0.07) increased the mean survival
- potentiation of the effect of doxorubicin on tumor growth (MDA-MB-231 tumors [5]; AMD3100 […] s.c. MWF + doxorubicin 1 mg/kg i.p. weekly, duration of study from day 14, FIG. 6A): significantly potentiated the effect of 1 mg/kg doxorubicin on the tumor growth
- SDF-1α/CXCL12-mediated transactivation of HER2/neu [6]: inhibit
- growth onset of 4T1 cells in the lung (murine 4T1 cells): significantly delayed the growth onset
- overall survival (murine 4T1 cells; mice with experimental lung metastases): did not appear to improve overall survival
- white blood cell count [7]: increasing the white blood cell count

Source: patent publication US20110281814A1, “METHODS AND COMPOSITIONS FOR TREATING BREAST CANCER” (Genzyme Corporation, priority 2009, published 2011)
